Laboratory results reported in patent publication US10597388B2, “Pyridazinone herbicides” (FMC CORPORATION, priority 2014, dated 2020).

Assays:
Assay in all cases: Test D controlled growth environment herbicide test, pre- and postemergence
Format in all cases: in vivo
[1] = tested on: barley, spring (spring barley, Hordeum vulgare)
In short: (§1)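 Rating is visual, 0–100 scale (100 = complete control), made against untreated plants 14–21 d after treatment in controlled growth conditions. Postemergence sprays went onto 1- to 4-leaf plants in peat medium; preemergence sprays onto silt loam after sowing; formulation included a surfactant.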

[2] = tested on: blackgrass (Alopecurus myosuroides)
In short: as §1

[3] = tested on: bluegrass (annual bluegrass, Poa annua)
In short: as §1

[4] = tested on: buckwheat, wild (wild buckwheat, Polygonum convolvulus)
In short: as §1

[5] = tested on: canarygrass (Phalaris minor)
In short: as §1

[6] = tested on: chamomile (scentless chamomile, Matricaria inodora)
In short: as §1

[7] = tested on: field violet (Viola arvensis)
In short: as §1

[8] = tested on: foxtail, green (green foxtail, Setaria viridis)
In short: as §1

[9] = tested on: oat, wild (wild oat, Avena fatua)
In short: as §1

[10] = tested on: pigweed (Amaranthus retroflexus)
In short: as §1

[11] = tested on: radish, wild (wild radish, Raphanus raphanistrum)
In short: as §1

[12] = tested on: ryegrass, Italian (Italian ryegrass, Lolium multiflorum)
In short: as §1

[13] = tested on: wheat, spring (spring wheat, Triticum aestivum)
In short: as §1

[14] = Postemergence, 31 g ai/ha, scale 0 to 100 (0 no effect, 100 complete control)
[15] = Postemergence, 125 g ai/ha, visual rating on scale 0 (no effect) to 100 (complete control), 14 to 21 d
[16] = Postemergence, 250 g ai/ha, scale 0 to 100 (0 no effect, 100 complete control)
[17] = Preemergence, 62 g ai/ha, scale 0 to 100 (0 no effect, 100 complete control)
[18] = Preemergence, 125 g ai/ha, scale 0 to 100 (0 no effect, 100 complete control)
[19] = Preemergence, 250 g ai/ha, scale 0 to 100 (0 no effect, 100 complete control)
[20] = postemergence, 62 g ai/ha, scale 0 to 100, 0 no effect, 100 complete control

Cc1cc(C)c2sc(C)c(-c3c(OC(=O)OC(C)C)c(C)nn(C)c3=O)c2c1 [Compound 67]
Barley, Spring plant response rating [1, 14]: 0 | Plant response rating, Barley, Spring [1, 15]: 10 | Plant response rating, Barley, Spring [1, 16]: 20 | Plant response rating (scale of 0 to 100), Barley, Spring ([1]; Preemergence, 31 g ai/ha): 0 | Plant response rating, Barley, Spring [1, 17]: 0 | Plant response rating, Barley, Spring [1, 18]: 0 | Plant response rating, Barley, Spring [1, 19]: 0 | Plant response rating, Barley, Spring [1, 20]: 5 | Blackgrass plant response rating [2, 14]: 70 | Plant response rating, Blackgrass [2, 15]: 85 | Plant response rating, Blackgrass [2, 16]: 95 | Plant response rating (scale of 0 to 100), Blackgrass ([2]; Preemergence, 31 g ai/ha): 75 | Plant response rating, Blackgrass [2, 17]: 75 | Plant response rating, Blackgrass [2, 18]: 75 | Plant response rating, Blackgrass [2, 19]: 80 | Plant response rating, Blackgrass [2, 20]: 75 | Bluegrass plant response rating [3, 14]: 5 | Plant response rating, Bluegrass [3, 15]: 20 | Plant response rating, Bluegrass [3, 16]: 30 | Plant response rating (scale of 0 to 100), Bluegrass ([3]; Preemergence, 31 g ai/ha): 0 | Plant response rating, Bluegrass [3, 17]: 0 | Plant response rating, Bluegrass [3, 18]: 20 | Plant response rating, Bluegrass [3, 19]: 50 | Plant response rating, Bluegrass [3, 20]: 15 | Buckwheat, Wild plant response rating [4, 14]: 100 | Plant response rating, Buckwheat, Wild [4, 15]: 100 | Plant response rating, Buckwheat, Wild [4, 16]: 100 | Plant response rating (scale of 0 to 100), Buckwheat, Wild ([4]; Preemergence, 31 g ai/ha): 0 | Plant response rating, Buckwheat, Wild [4, 17]: 0 | Plant response rating, Buckwheat, Wild [4, 18]: 0 | Plant response rating, Buckwheat, Wild [4, 19]: 0 | Plant response rating, Buckwheat, Wild [4, 20]: 100 | Canarygrass plant response rating [5, 14]: 75 | Plant response rating, Canarygrass [5, 15]: 85 | Plant response rating, Canarygrass [5, 16]: 95 | Plant response rating (scale of 0 to 100), Canarygrass ([5]; Preemergence, 31 g ai/ha): 40 | Plant response rating, Canarygrass [5, 17]: 85 | Plant response rating, Canarygrass [5, 18]: 90 | Plant response rating, Canarygrass [5, 19]: 95 | Plant response rating, Canarygrass [5, 20]: 85 | Chamomile plant response rating [6, 14]: 95 | Plant response rating, Chamomile [6, 15]: 100 | Plant response rating, Chamomile [6, 16]: 100 | Plant response rating (scale of 0 to 100), Chamomile ([6]; Preemergence, 31 g ai/ha): 95 | Plant response rating, Chamomile [6, 17]: 95 | Plant response rating, Chamomile [6, 18]: 100 | Plant response rating, Chamomile [6, 19]: 100 | Plant response rating, Chamomile [6, 20]: 100 | Field Violet plant response rating [7, 14]: 80 | Plant response rating, Field Violet [7, 15]: 90 | Plant response rating, Field Violet [7, 16]: 95 | Plant response rating (scale of 0 to 100), Field Violet ([7]; Preemergence, 31 g ai/ha): 85 | Plant response rating, Field Violet [7, 17]: 98 | Plant response rating, Field Violet [7, 18]: 100 | Plant response rating, Field Violet [7, 19]: 100 | Plant response rating, Field Violet [7, 20]: 80 | Foxtail, Green plant response rating [8, 14]: 80 | Plant response rating, Foxtail, Green [8, 15]: 100 | Plant response rating, Foxtail, Green [8, 16]: 100 | Plant response rating (scale of 0 to 100), Foxtail, Green ([8]; Preemergence, 31 g ai/ha): 15 | Plant response rating, Foxtail, Green [8, 17]: 80 | Plant response rating, Foxtail, Green [8, 18]: 85 | Plant response rating, Foxtail, Green [8, 19]: 85 | Plant response rating, Foxtail, Green [8, 20]: 90 | Oat, Wild plant response rating [9, 14]: 95 | Plant response rating, Oat, Wild [9, 15]: 100 | Plant response rating, Oat, Wild [9, 16]: 100 | Plant response rating (scale of 0 to 100), Oat, Wild ([9]; Preemergence, 31 g ai/ha): 70 | Plant response rating, Oat, Wild [9, 17]: 75 | Plant response rating, Oat, Wild [9, 18]: 80 | Plant response rating, Oat, Wild [9, 19]: 90 | Plant response rating, Oat, Wild [9, 20]: 98 | Pigweed plant response rating [10, 14]: 75 | Plant response rating, Pigweed [10, 15]: 85 | Plant response rating, Pigweed [10, 16]: 100 | Plant response rating (scale of 0 to 100), Pigweed ([10]; Preemergence, 31 g ai/ha): 35 | Plant response rating, Pigweed [10, 17]: 95 | Plant response rating, Pigweed [10, 18]: 100 | Plant response rating, Pigweed [10, 19]: 100 | Plant response rating, Pigweed [10, 20]: 80 | Radish, Wild plant response rating [11, 14]: 55 | Plant response rating, Radish, Wild [11, 15]: 70 | Plant response rating, Radish, Wild [11, 16]: 95 | Plant response rating (scale of 0 to 100), Radish, Wild ([11]; Preemergence, 31 g ai/ha): 25 | Plant response rating, Radish, Wild [11, 17]: 60 | Plant response rating, Radish, Wild [11, 18]: 75 | Plant response rating, Radish, Wild [11, 19]: 95 | Plant response rating, Radish, Wild [11, 20]: 65 | Ryegrass, Italian plant response rating [12, 14]: 85 | Plant response rating, Ryegrass, Italian [12, 15]: 98 | Plant response rating, Ryegrass, Italian [12, 16]: 100 | Plant response rating (scale of 0 to 100), Ryegrass, Italian ([12]; Preemergence, 31 g ai/ha): 75 | Plant response rating, Ryegrass, Italian [12, 17]: 80 | Plant response rating, Ryegrass, Italian [12, 18]: 85 | Plant response rating, Ryegrass, Italian [12, 19]: 90 | Plant response rating, Ryegrass, Italian [12, 20]: 90 | Wheat, Spring plant response rating [13, 14]: 0 | Plant response rating, Wheat, Spring [13, 15]: 0 | Plant response rating, Wheat, Spring [13, 16]: 5 | Plant response rating (scale of 0 to 100), Wheat, Spring ([13]; Preemergence, 31 g ai/ha): 0 | Plant response rating, Wheat, Spring [13, 17]: 0 | Plant response rating, Wheat, Spring [13, 18]: 0 | Plant response rating, Wheat, Spring [13, 19]: 10 | Plant response rating, Wheat, Spring [13, 20]: 0
